Patent publication US8163724B2, “Glucocorticosteroids, processes for their preparation, pharmaceutical compositions containing them and their use in therapy” (AstraZeneca AB, priority 2007, dated 2012)

target: T1, recombinant human GR (Homo sapiens, UniProt P04150); assay: Human Glucocorticoid Receptor (GR) Assay (fluorescence polarization, Panvera/Invitrogen kit); type: binding; details: fluorescence polarization; GS Red tracer; 2 hours at room temperature; 100% control 10 μM Dexamethasone; read-out: Inhibition of GR binding, IC50
T1 construct: purchased Panvera/Invitrogen P2812 (kit P2893)
T1 sequence (P04150 1-777): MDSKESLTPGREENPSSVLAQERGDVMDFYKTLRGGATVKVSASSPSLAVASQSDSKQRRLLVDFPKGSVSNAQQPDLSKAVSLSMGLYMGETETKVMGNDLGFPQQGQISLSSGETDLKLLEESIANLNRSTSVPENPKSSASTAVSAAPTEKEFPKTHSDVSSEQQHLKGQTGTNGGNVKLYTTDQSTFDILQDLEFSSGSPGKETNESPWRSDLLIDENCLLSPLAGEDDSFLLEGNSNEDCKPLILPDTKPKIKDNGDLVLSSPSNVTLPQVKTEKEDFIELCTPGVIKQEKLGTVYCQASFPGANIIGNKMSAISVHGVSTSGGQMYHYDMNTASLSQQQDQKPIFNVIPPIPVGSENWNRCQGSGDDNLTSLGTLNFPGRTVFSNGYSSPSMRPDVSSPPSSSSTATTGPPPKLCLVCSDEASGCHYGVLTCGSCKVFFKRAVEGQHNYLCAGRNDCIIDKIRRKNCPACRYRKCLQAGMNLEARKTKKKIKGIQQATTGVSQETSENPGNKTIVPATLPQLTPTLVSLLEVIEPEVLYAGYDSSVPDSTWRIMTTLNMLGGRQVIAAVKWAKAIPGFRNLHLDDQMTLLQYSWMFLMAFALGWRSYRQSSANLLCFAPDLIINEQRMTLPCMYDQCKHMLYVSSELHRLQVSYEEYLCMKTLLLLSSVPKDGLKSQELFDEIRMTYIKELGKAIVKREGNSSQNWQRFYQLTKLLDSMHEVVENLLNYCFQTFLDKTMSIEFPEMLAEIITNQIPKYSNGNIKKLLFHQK
In short: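 Fluorescence polarization competition with recombinant GR and GS Red fluorescent ligand plus stabilizing peptide and DTT in potassium phosphate/sodium molybdate/EDTA buffer with DMSO. Incubated 2 hours at room temperature in the dark; 0% control DMSO, 100% control 10 μM dexamethasone.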

Structure (SMILES) | IC50 [nM]
C=CCOCc1cc(-n2ncc3c2C=C2CC[C@@H]4[C@H]([C@@H](O)C[C@@]5(C)[C@H]4CC[C@]5(OC(=O)c4ccco4)C(=O)NC)[C@@]2(C)C3)ccc1F [Example 78, (1R,3aS,3bS,10aR,10bS,11S,12aS)-7-{4-Fluoro-3-[(prop-2-en-1-yloxy)methyl]phenyl}-11-hydroxy-10a,12a-dimethyl-1-(methylcarbamoyl)-1,2,3,3a,3b,4,5,7,10,10a,10b,11,12,12a-tetradecahydrocyclopenta[5,6]naphtho[1,2-f]indazol-1-yl furan-2-carboxylate] | 12
C[C@]12Cc3cnn(-c4ccc(F)c(CO)c4)c3C=C1CC[C@@H]1[C@@H]2[C@@H](O)C[C@@]2(C)[C@H]1CC[C@]2(OC(=O)c1ccco1)C(=O)OCC#N [Example 79, Cyanomethyl(1R,3aS,3bS,10aR,10bS,11S,12aS)-7-[4-fluoro-3-(hydroxymethyl)phenyl]-1-[(furan-2-ylcarbonyl)oxy]-11-hydroxy-10a,12a-dimethyl-1,2,3,3a,3b,4,5,7,10,10a,10b,11,12,12a-tetradecahydrocyclopenta[5,6]naphtho[1,2-f]indazole-1-carboxylate] | 4.2
C[C@]12Cc3cnn(-c4ccc(F)c(CO)c4)c3C=C1CC[C@@H]1[C@@H]2[C@@H](O)C[C@@]2(C)[C@H]1CC[C@]2(OC(=O)c1ccco1)C(=O)SCC#N [Example 80, (1R,3aS,3bS,10aR,10bS,11S,12aS)-1-{[(Cyanomethyl)thio]carbonyl}-7-[4-fluoro-3-(hydroxymethyl)phenyl]-11-hydroxy-10a,12a-dimethyl-1,2,3,3a,3b,4,5,7,10,10a,10b,11,12,12a-tetradecahydrocyclopenta[5,6]naphtho[1,2]-indazol-1-yl furan-2-carboxylate] | 4.2
C[C@]12Cc3cnn(-c4ccc(F)c(CO)c4)c3C=C1CC[C@@H]1[C@@H]2[C@@H](O)C[C@@]2(C)[C@H]1CC[C@]2(OC(=O)c1ccco1)C(=O)SCF [Example 81, (1R,3aS,3bS,10aR,10bS,11S,12aS)-7-[4-Fluoro-3-(hydroxymethyl)phenyl]-1-{[(fluoromethyl)thio]carbonyl}-11-hydroxy-10a,12a-dimethyl-1,2,3,3a,3b,4,5,7,10,10a,10b,11,12,12a-tetradecahydrocyclopenta[5,6]naphtho[1,2-f]indazol-1-yl furan-2-carboxylate] | 4.5
CSCSC(=O)[C@@]1(OC(=O)c2ccco2)CC[C@H]2[C@@H]3CCC4=Cc5c(cnn5-c5ccc(F)cc5)C[C@]4(C)[C@H]3[C@@H](O)C[C@@]21C [Example 82, (1R,3aS,3bS,10aR,10bS,11S,12aS)-7-(4-Fluorophenyl)-11-hydroxy-10a,12a-dimethyl-1-({[(methylsulfanyl)methyl]sulfanyl}carbonyl)-1,2,3,3a,3b,4,5,7,10,10a,10b,11,12,12a-tetradecahydrocyclopenta[5,6]naphtho[1,2-f]indazol-1-yl furan-2-carboxylate] | 8.5
C[C@]12Cc3cnn(-c4ccc(F)cc4)c3C=C1CC[C@@H]1[C@@H]2[C@@H](O)C[C@@]2(C)[C@H]1CC[C@]2(OC(=O)c1ccco1)C(=O)SCSC#N [Example 83, (1R,3aS,3bS,10aR,10bS,11S,12aS)-7-(4-Fluorophenyl)-11-hydroxy-10a,12a-dimethyl-1-{[(thiocyanatomethyl)sulfanyl]carbonyl}-1,2,3,3a,3b,4,5,7,10,10a,10b,11,12,12a-tetradecahydrocyclopenta[5,6]naphtho[1,2-f]indazol-1-yl furan-2-carboxylate] | 18
C[C@]12Cc3cnn(-c4ccc(F)cc4)c3C=C1CC[C@@H]1[C@@H]2[C@@H](O)C[C@@]2(C)[C@H]1CC[C@]2(OC(=O)c1ccco1)C(=O)SCC(O)CO (stereo partly drawn) [Example 84, (1R,3aS,3bS,10aR,10bS,11S,12aS)-1-{[(2,3-Dihydroxypropyl)sulfanyl]carbonyl}-7-(4-fluorophenyl)-11-hydroxy-10a,12a-dimethyl-1,2,3,3a,3b,4,5,7,10,10a,10b,11,12,12a-tetradecahydrocyclopenta[5,6]naphtho[1,2-f]indazol-1-yl furan-2-carboxylate] | 5
COCCCSC(=O)[C@@]1(OC(=O)c2ccco2)CC[C@H]2[C@@H]3CCC4=Cc5c(cnn5-c5ccc(F)cc5)C[C@]4(C)[C@H]3[C@@H](O)C[C@@]21C [Example 85, (1R,3aS,3bS,10aR,10bS,11S,12aS)-7-(4-Fluorophenyl)-11-hydroxy-{[(3-methoxypropyl)sulfanyl]carbonyl}-10a,12a-dimethyl-1,2,3,3a,3b,4,5,7,10,10a,10b,11,12,12a-tetradecahydrocyclopenta[5,6]naphtho[1,2-f]indazol-1-yl furan-2-carboxylate] | 6.3
C[C@]12Cc3cnn(-c4ccc(F)cc4)c3C=C1CC[C@@H]1[C@@H]2[C@@H](O)C[C@@]2(C)[C@H]1CC[C@]2(OC(=O)c1ccco1)C(=O)SCCCC#N [Example 86, (1R,3aS,3bS,10aR,10bS,11S,12aS)-1-{[(3-Cyanopropyl)sulfanyl]carbonyl}-7-(4-fluorophenyl)-11-hydroxy-10a,12a-dimethyl-1,2,3,3a,3b,4,5,7,10,10a,10b,11,12,12a-tetradecahydrocyclopenta[5,6]naphtho[1,2-f]indazol-1-yl furan-2-carboxylate] | 3.5
CC(=O)OCC(=O)CSC(=O)[C@@]1(OC(=O)c2ccco2)CC[C@H]2[C@@H]3CCC4=Cc5c(cnn5-c5ccc(F)cc5)C[C@]4(C)[C@H]3[C@@H](O)C[C@@]21C [Example 87, (1R,3aS,3bS,10aR,10bS,11S,12aS)-1-({[3-(Acetyloxy)-2-oxopropyl]sulfanyl}carbonyl)-7-(4-fluorophenyl)-11-hydroxy-10a,12a-dimethyl-1,2,3,3a,3b,4,5,7,10,10a,10b,11,12,12a-tetradecahydrocyclopenta[5,6]naphtho[1,2-f]indazol-1-yl furan-2-carboxylate] | 5.3
C=C(CSC(=O)[C@@]1(OC(=O)c2ccco2)CC[C@H]2[C@@H]3CCC4=Cc5c(cnn5-c5ccc(F)cc5)C[C@]4(C)[C@H]3[C@@H](O)C[C@@]21C)OCOC [Example 88, (1R,3aS,3bS,10aR,10bS,11S,12aS)-7-(4-fluorophenyl)-11-hydroxy-1-({[2-(methoxymethoxy)prop-2-en-1-yl]sulfanyl}carbonyl)-10a,12a-dimethyl-1,2,3,3a,3b,4,5,7,10,10a,10b,11,12,12a-tetradecahydrocyclopenta[5,6]naphtho[1,2-f]indazol-1-yl furan-2-carboxylate] | 13
CC(=O)CSC(=O)[C@@]1(OC(=O)c2ccco2)CC[C@H]2[C@@H]3CCC4=Cc5c(cnn5-c5ccc(F)cc5)C[C@]4(C)[C@H]3[C@@H](O)C[C@@]21C [Example 89, (1R,3aS,3bS,10aR,10bS,11S,12aS)-7-(4-Fluorophenyl)-11-hydroxy-10a,12a-dimethyl-1-{[(2-oxopropyl)sulfanyl]carbonyl}-1,2,3,3a,3b,4,5,7,10,10a,10b,11,12,12a-tetradecahydrocyclopenta[5,6]naphtho[1,2-f]indazol-1-yl furan-2-carboxylate] | 6.9
C[C@]12Cc3cnn(-c4ccc(F)cc4)c3C=C1CC[C@@H]1[C@@H]2[C@@H](O)C[C@@]2(C)[C@H]1CC[C@]2(OC(=O)c1ccco1)C(=O)SCC(N)=O [Example 90, (1R,3aS,3bS,10aR,10bS,11S,12aS)-1-{[(2-Amino-2-oxoethyl)sulfanyl]carbonyl}-7-(4-fluorophenyl)-11-hydroxy-10a,12a-dimethyl-1,2,3,3a,3b,4,5,7,10,10a,10b,11,12,12a-tetradecahydrocyclopenta[5,6]naphtho[1,2-f]indazol-1-yl furan-2-carboxylate] | 4.6
C[C@]12Cc3cnn(-c4ccc(F)cc4)c3C=C1CC[C@@H]1[C@@H]2[C@@H](O)C[C@@]2(C)[C@H]1CC[C@]2(OC(=O)c1ccco1)C(=O)SCCO [Example 91, (1R,3aS,3bS,10aR,10bS,11S,12aS)-7-(4-fluorophenyl)-11-hydroxy-1-{[(2-hydroxyethyl)sulfanyl]carbonyl}-10a,12a-dimethyl-1,2,3,3a,3b,4,5,7,10,10a,10b,11,12,12a-tetradecahydrocyclopenta[5,6]naphtho[1,2-f]indazol-1-yl furan-2-carboxylate] | 3.7
C[C@]12Cc3cnn(-c4ccc(F)cc4)c3C=C1CC[C@@H]1[C@@H]2[C@@H](O)C[C@@]2(C)[C@H]1CC[C@]2(OC(=O)c1ccco1)C(=O)SCCCO [Example 92, (1R,3aS,3bS,10aR,10bS,11S,12aS)-7-(4-Fluorophenyl)-11-hydroxy-1-{[(3-hydroxypropyl)sulfanyl]carbonyl}-10a,12a-dimethyl-1,2,3,3a,3b,4,5,7,10,10a,10b,11,12,12a-tetradecahydrocyclopenta[5,6]naphtho[1,2-f]indazol-1-yl furan-2-carboxylate] | 4
